Reference: US20260345582A1, “PRODRUG FOR ANTI-AGING RELATED DISEASES AND USE METHOD THEREOF” (Beijing SunCell Bio-Medical Co., Ltd., priority 2022, published 2026)

Tests used:
[1] = liver microsomal metabolic stability, human; details: Fu and RB assumed to be 1
Method: (§1) Hepatic Microsomal Metabolic Stability
(§2) A13bGa1 was co-incubated with the mouse, rat, canine, monkey and human […] and the incubation medium at a final drug concentration of 1 μM in the incubation system for 60 minutes. Samples were taken and analyzed at time points 0, 15, 30, 45 and 60 minutes during the incubation. The reaction was terminated by adding an amount of acetonitrile solution containing the internal standard. […] The residual percentage, half-life, intrinsic clearance, amplified clearance, hepatic clearance and hepatic extraction ratio were determined. The entire experiment was performed in triplicate. All data calculations were performed by Microsoft Excel software. Peak areas were detected by extracting the ionic spectrum. The in vitro half-life (t1/2) of the parent compound was detected by fitting the natural logarithm of the percentage elimination of the parent compound linearly to time.
(§3) The in vitro intrinsic clearance (in μL/min/mg protein) was calculated using the following equation: in vitro CLint=kV/N
(§4) The amplified clearance (in mL/min/kg) was calculated using the following equation: Amplified CLint=kV/N×the amplification factor
(§5) The hepatic clearance (in mL/min/kg) was calculated using the following equation: The predicted hepatic CLH=(Q×Fu/RB×the amplified CLint)/(Q+Fu/RB×the amplified CLint) • V=the incubation volume per well (0.2 mL); • N=the total amount of protein (mg) • Q=the hepatic blood flow (mL/min/kg) • Fu=the plasma free rate (assumed to be 1) • RB=the whole blood partition coefficient (assumed to be 1)
(§6) The hepatic uptake rate was calculated using the following equation:
(§7) The hepatic extraction ratio (ER)=(the predicted hepatic CLH)/Q

[2] = liver microsomal metabolic stability, monkey; details: Fu and RB assumed to be 1
Method: as §1, §2, §3, §4, §5, §6, §7

[3] = liver microsomal metabolic stability, canine; details: canine; Fu and RB assumed to be 1
Method: as §1, §2, §3, §4, §5, §6, §7

[4] = liver microsomal metabolic stability, rat; details: Fu and RB assumed to be 1
Method: as §1, §2, §3, §4, §5, §6, §7

[5] = liver microsomal metabolic stability, mouse; details: Fu and RB assumed to be 1
Method: as §1, §2, §3, §4, §5, §6, §7

[6] = system: A549 cells (human non-small cell lung cancer cell), induced senescent with Cisplatin; assay: in vitro killing of induced senescent A549 cells (CCK-8); type: cell-based; details: induced senescent A549 cell model, FIG. 1A
Description: A. The killing results of some selected compounds in the in vitro compound library screening on the induced senescent A549 cell model. Wherein, MZ-1, dBET6, ARV-825, I-BET726, I-BET151, and INCB057643 are all BET inhibitors; A1331852 and A1155463 are novel Bcl-xL inhibitors; Dasatinib, Quercetin, Fisetin, Curcumin are the familiar active drugs or natural products.
B. Comparison of the killing effects of three Bcl-xL inhibitors on the induced senescent A549 cell model. A549 represents the normal uninduced A549 cell group; and A549-CDDP represents the senescent A549 cell group induced with Cisplatin (CDDP) in vitro.
(§8) Induction of the Cellular Senescence

[7] = system: senescent A549 cells; assay: cell killing activity assay, senescent A549 cells (Example 7); type: cell-based, human; details: for selective killing of the senescent cells: A549-induced senescence model, three days, CCK-8, FIG. 7
Method: as §8
(§9) Cell Killing Activity Assay
(§10) Preparation of the cell plates: The non-senescent, and the induced senescent HEF cells and A549 cells were taken respectively, digested with trypsin, and centrifuged at 1000 rmp for 5 minutes. The supernatants were removed, and the cells were resuspended in fresh DMEM medium containing 10% foetal bovine serum for counting. The cell density was adjusted so that the density of the non-senescent cells was at 4000 cells/100 μL and the density of the senescent cells was at 7000 cells/100 μL. The cell suspension was added to the 96-well transparent cell culture plates at 100 μL per well. Note that the edge wells of the 96-well plate were not used for the test wells, and 300 μL PBS is added separately to reduce the medium evaporation. The cell-spread 96-well plates were put back into the incubator at 37 °C for the overnight incubation until the cells adhered to the wall.
Formulation of the drug concentration gradients: After the cells adhered to the wall on the second day, the small molecule compounds (d-12, d-11, and d-4) to be tested for activity are ready to be added. […] 3 parallel replicate wells were set up for each test drug concentration. The 96-well plate was put back into the incubator at 37 °C, and the cell survival was tested after three days.
Detection of the cell survival after the drug treatment using the CCK-8 method: Three days after the addition of the drug, the well plate was removed, the supernatant was discarded, and 100 μL of the pre-prepared CCK-8 working solution was added to each well. The CCK-8 working solution was obtained by diluting the CCK8 stock solution (C0041, Beyotime) with the serum-free DMEM medium in 10-fold volume. The 96-well plate added with the CCK-8 working solution was put back to the incubator at 37 °C and incubated for 0.5-2 hours. The plate was taken out to determine the absorbance value (OD value) of each well at the wavelength of 450 nm. The cell viability in each experimental group was calculated. […]

[8] = system: senescent HEF cells; assay: cell killing activity assay, senescent HEF cells (Example 7); type: cell-based, human; details: HEF-induced senescence model, three days, CCK-8, FIG. 7
Method: as §8, §9
as §10, with “Note that the edge wells of the 96-well plate were not used for the test wells, and 300 μL PBS is added separately to reduce the medium evaporation. The cell-spread 96-well plates were put back into the incubator at 37 °C for the overnight incubation until the cells adhered to the wall.” left out
(§11) Formulation of the drug concentration gradients: After the cells adhered to the wall on the second day, the small molecule compounds (d-12, d-11, and d-4) to be tested for activity are ready to be added. […]
(§12) Detection of the cell survival after the drug treatment using the CCK-8 method: Three days after the addition of the drug, the well plate was removed, the supernatant was discarded, and 100 μL of the pre-prepared CCK-8 working solution was added to each well. […] The plate was taken out to determine the absorbance value (OD value) of each well at the wavelength of 450 nm. The cell viability in each experimental group was calculated. […]

[9] = system: non-senescent A549 cells; assay: cell killing activity assay, non-senescent A549 cells (Example 7); type: cell-based, human; details: non-senescent A549, highest concentration (25 μM)
Method: as §8, §9
as §10, with “Note that the edge wells of the 96-well plate were not used for the test wells, and 300 μL PBS is added separately to reduce the medium evaporation. The cell-spread 96-well plates were put back into the incubator at 37 °C for the overnight incubation until the cells adhered to the wall.” left out
as §11, §12

[10] = system: non-senescent HEF cells; assay: cell killing activity assay, non-senescent HEF cells (Example 7); type: cell-based, human; details: highest concentration (25 μM)
Method: as §8, §9
as §10, with “Note that the edge wells of the 96-well plate were not used for the test wells, and 300 μL PBS is added separately to reduce the medium evaporation. The cell-spread 96-well plates were put back into the incubator at 37 °C for the overnight incubation until the cells adhered to the wall.” left out
as §11, §12

[11] = system: senescent cells (A549 and HEF); assay: cell killing activity assay, senescent A549 and HEF cell models (Example 7); type: cell-based, human; details: FIG. 7
Method: as §8, §9
as §10, with “Note that the edge wells of the 96-well plate were not used for the test wells, and 300 μL PBS is added separately to reduce the medium evaporation. The cell-spread 96-well plates were put back into the incubator at 37 °C for the overnight incubation until the cells adhered to the wall.” left out
as §11, §12

For `O=c1ccc2ccc(O)cc2o1` [7-hydroxycoumarin, reference compound], the “The predicted intrinsic hepatic clearance Clint” value [1] was 20.16 mL/min/kg, the “The predicted intrinsic hepatic clearance Clint” value [2] was 42.08 mL/min/kg and the “The predicted intrinsic hepatic clearance Clint” value [3] was 30.44 mL/min/kg. For the same compound, the “The predicted intrinsic hepatic clearance Clint” value [4] was 52.33 mL/min/kg and the “The predicted intrinsic hepatic clearance Clint” value [5] was 87.82 mL/min/kg.
In the case of `Cc1sc2c(c1C)C(c1ccc(Cl)cc1)=N[C@@H](CC(=O)Nc1ccc(OCCOCCOCCOCCNc3cccc4c3C(=O)N(C3CCC(=O)NC3=O)C4=O)cc1)c1nnc(C)n1-2` (stereo partly shown) [ARV825], the “senescent cell killing activity and selectivity, compound screening” value [6] is reported as “better in vitro killing activity”.
In the case of `CN(C)CC#Cc1ccc(OCCCc2sc(N3CCc4cccc(C(=O)Nc5nc6ccccc6s5)c4C3)nc2C(=O)O)c(F)c1` [Compound A1155463], the “senescent cell killing activity and selectivity, compound screening” value [6] is reported as “good senescent cell killing activity and selectivity in vitro”.
For `Cc1ncsc1-c1ccc(CNC(=O)[C@@H]2C[C@@H](O)CN2C(=O)[C@@H](NC(=O)COCCOCCOCCNC(=O)C[C@@H]2N=C(c3ccc(Cl)cc3)c3c(sc(C)c3C)-n3c(C)nnc32)C(C)(C)C)cc1` [MZ1], the “senescent cell killing activity and selectivity, compound screening” value [6] was “better in vitro killing activity”.
For `CC(=O)OC[C@H]1O[C@@H](Oc2ccc(C(Cc3cn(CCCN4CCOCC4)nn3)OC(=O)c3nc(N4CCc5cccc(C(=O)Nc6nc7ccccc7s6)c5C4)ccc3-c3cnn(CC45CC6CC(CC(C6)C4)C5)c3C)cc2[N+](=O)[O-])[C@H](OC(C)=O)[C@@H](OC(C)=O)[C@H]1OC(C)=O` (stereo partly drawn) [d-11], the “selective killing of the senescent cells” value [7] was “selective killing of the senescent cells”, the “selective killing of the senescent cells” value [8] was “selective killing of the senescent cells” and the “killing of the non-senescent cells” value [9] was “none of the three molecules killed the non-senescent cells”. The “killing of the non-senescent cells” value [10] was “none of the three molecules killed the non-senescent cells”.
For `Cc1c(-c2ccc(N3CCc4cccc(C(=O)Nc5nc6ccccc6s5)c4C3)nc2C(=O)OC(Cc2cn(CCCN3CCOCC3)nn2)c2ccc(O[C@@H]3O[C@H](CO)[C@H](O)[C@H](O)[C@H]3O)c([N+](=O)[O-])c2)cnn1CC12CC3CC(CC(C3)C1)C2` (stereo partly drawn) [d-12], the “selective killing of the senescent cells” value [7] was “selective killing of the senescent cells”, the IC50 ([7]; Homo sapiens, 72 h, Cisplatin-induced senescent A549, three days, CCK-8) was ~6.9 µM and the “selective killing of the senescent cells” value [8] was “selective killing of the senescent cells”. The “killing of the non-senescent cells” value [9] was “none of the three molecules killed the non-senescent cells”, the “killing of the non-senescent cells” value [10] was “none of the three molecules killed the non-senescent cells” and the “relative activity in killing the senescent cells among the three molecules” value [11] was “relatively more active in killing the senescent cells”.
With `Cc1sc2c(c1C)C(c1ccc(Cl)cc1)=N[C@@H](CC(=O)NCCCCCCCCNC(=O)COc1cccc3c1C(=O)N(C1CCC(=O)NC1=O)C3=O)c1nnc(C)n1-2` (stereo partly shown) [dBET6] the “senescent cell killing activity and selectivity, compound screening” value [6] was “better in vitro killing activity”.
